The values below come from US9375448B2, “Method for isolating a chemotherapeutic agent resistant cancer cell with stem cell properties” (THE ROGOSIN INSTITUTE, INC., priority 2010, dated 2016).

Entries after “also recorded” stand apart in the source; their conditions may differ.

Test [1] deals with RENCA cells. In words: Histological examination of agarose coated agarose beads containing RENCA cells one week after drug exposure. The settings on record: for Effect: histology one week following exposure; for Destruction of cells within the encapsulated tumor colonies: beads treated with the drug. Format: cell-based. On the set-up: key to Effect: −: no change; +: complete loss of cell viability; +/−: an intermediate effect. The protocol:
Agarose coated, agarose beads containing RENCA cells were prepared in accordance with Smith, et al., Canc Res., 71(3): 716-724 (2011); and Smith et al., Canc. Res. 71(3): 725-735 (2011), the disclosures of which are incorporated by reference. The resulting beads were cultured in medium for 12 weeks.
Samples of beads were then exposed to a single, known anti-cancer drug, at one of three varying concentrations. The exposure involved incubation of the beads in the presence of the drug for a period of time based upon the known, half life of the drug.
Following incubation, the beads were washed, twice, and transferred to naïve culture media. Controls were also prepared, which included untreated beads, as well as beads exposed to whatever vehicle was used to solubilize the drug.
Histological examination of the beads was undertaken one week following exposure to the drug. […]

For test [2], the system named is RENCA cells. In words: 18 week culture of drug treated RENCA beads, sectioned and stained to count cell nuclei, normalized to DMSO treated beads. Format: cell-based. The settings on record: for beads that developed 1 or 2 large colonies: week 18. The protocol: The Paclitaxel and Docetaxel treated beads were cultured, under standard conditions, as were control beads which had been exposed to DMSO, which was the vehicle for delivery of the two drugs. The culture period was 18 weeks.
Approximately 10% of the beads developed 1 or 2 large colonies, at week 18.
In order to quantify the cell loss, representative beads from the DMSO control, Paclitaxel and Docetaxel groups were sectioned and stained, using standard methods, in order to permit counting of cell nuclei. Results were normalized to the DMSO treated beads.
In the case of treatment with Paclitaxel, there was an initial loss over weeks 1-3, of about 25% of cells per colony. The majority of colonies did contain viable cells. […] In the case of docetaxel treated beads, these lost viable cells very rapidly, such that only 1-2 viable cells were present in the colonies 6 weeks after treatment.

On to `N.N.O=C([O-])C1(C(=O)[O-])CCC1.[Pt+2]` [Carboplatin], for which the Effect entry was “+/−” in test [1] (Treatment time 5 days, dose 25 μg/ml); “+” in test [1] (Treatment time 5 days, dose 250 μg/ml); “+” in test [1] (Treatment time 5 days, dose 2500 μg/ml).

With `N.N.[Cl][Pt][Cl]` [Cisplatin], the Effect entry in test [1] (Treatment time 1 hr, dose 60 ng/ml) was “−”; in test [1] (Treatment time 1 hr, dose 600 ng/ml) it was “−”; in test [1] (Treatment time 1 hr, dose 6000 ng/ml), “−”.

For `CC(=O)O[C@@]12CO[C@@H]1C[C@H](O)[C@@]1(C)C(=O)[C@H](O)C3=C(C)[C@@H](OC(=O)[C@H](O)[C@@H](NC(=O)OC(C)(C)C)c4ccccc4)C[C@@](O)([C@@H](OC(=O)c4ccccc4)[C@H]21)C3(C)C` [Docetaxel], the “viable cells per colony” value in test [2] (5 μg/ml, 6 weeks post-treatment) is given as 1-2 cells per colony. The “beads that developed 1 or 2 large colonies” value in test [2] (5 μg/ml) is “Approximately 10%”; in test [2] (5 μg/ml, listed as docetaxel) it was “about 10%”. Also, the Effect entry in test [1] (Treatment time 1 day, dose 0.5 μg/ml) is “+/−”; in test [1] (Treatment time 1 day, dose 5 μg/ml), “+/−”; in test [1] (Treatment time 1 day, dose 50 μg/ml), “+/−”. The “Destruction of cells within the encapsulated tumor colonies” value in test [1] is recorded as “did not destroy all of the cells”.

As to `COc1cccc2c1C(=O)c1c(O)c3c(c(O)c1C2=O)C[C@@](O)(C(=O)CO)C[C@@H]3O[C@H]1C[C@H](N)[C@H](O)[C@H](C)O1` [Doxorubicin], the Effect entry in test [1] (Treatment time 2 days, dose 5 μg/ml) is “+”; in test [1] (Treatment time 2 days, dose 50 μg/ml), “+”; in test [1] (Treatment time 2 days, dose 100 μg/ml), “+”.

For the compound `CN(Cc1cnc2nc(N)nc(N)c2n1)c1ccc(C(=O)N[C@@H](CCC(=O)O)C(=O)O)cc1` [Methotrexate], the Effect entry in test [1] (Treatment time 1 day, dose 0.45 μg/ml) was “−”; in test [1] (Treatment time 1 day, dose 4.5 μg/ml), “−”; in test [1] (Treatment time 1 day, dose 45 μg/ml), “−”.

For the compound `CC(=O)O[C@H]1C(=O)[C@@]2(C)[C@H]([C@H](OC(=O)c3ccccc3)[C@]3(O)C[C@H](OC(=O)[C@H](O)[C@@H](NC(=O)c4ccccc4)c4ccccc4)C(C)=C1C3(C)C)[C@]1(OC(C)=O)CO[C@@H]1C[C@@H]2O` [Paclitaxel], the “cell number at week 18” value in test [2] (3.5 μg/ml, 18 weeks culture) is recorded as “return to the pre-treatment number of cells; also recorded: equivalent to the control DMSO beads”. Also, in test [2] (3.5 μg/ml, first 6 weeks post-treatment), the “cell number in beads over time after treatment” value is on record as “loss of cells for 6 weeks”. Besides, the “initial loss of cells per colony” value in test [2] (weeks 1-3 after treatment, normalized to DMSO treated beads) is on record as “about 25%”. Also, the Effect entry in test [1] (Treatment time 1 day, dose 0.35 μg/ml) is listed as “−”; in test [1] (Treatment time 1 day, dose 3.5 μg/ml), “+/−”; in test [1] (Treatment time 1 day, dose 35 μg/ml), “+/−”. Also, in test [1], the “Destruction of cells within the encapsulated tumor colonies” value is listed as “did not destroy all of the cells”.

On to `CCC1=C[C@@H]2CN(C1)Cc1c([nH]c3ccccc13)[C@@](C(=O)OC)(c1cc3c(cc1OC)N(C)[C@H]1[C@@](O)(C(=O)OC)[C@H](OC(C)=O)[C@]4(CC)C=CCN5CC[C@]31[C@@H]54)C2` [Vinorelbine], for which the Effect result was “−” in test [1] (Treatment time 2 days, dose 0.1 μg/ml); “+/−” in test [1] (Treatment time 2 days, dose 1 μg/ml); “+/−” in test [1] (Treatment time 2 days, dose 10 μg/ml).
